Results: patent US20240374753A1, “USE OF AN AGONIST OF FORMYL PEPTIDE RECEPTORS 1 AND 2 FOR TREATING OCULAR INFLAMMATORY DISEASES” (ALLGENESIS BIOTHERAPEUTICS INC., priority 2023, published 2024)

Assays:
[1] = system: patients with dry eye disease; test: Safety and tolerability (TEAEs), Phase 1b study; format: in vivo, human; details: BID for 3 months, both formulations
[2] = Preclinical studies; format: in vivo
[3] = system: patients with dry eye disease; test: Corneal fluorescein staining (NEI Scale), Phase 1b study; format: in vivo, human; details: for Corneal staining, unit improvement from baseline: p<0.05
Description: (§1) A multicenter, double-masked, randomized, parallel-group Phase 1b study evaluating the safety, tolerability, and dose-response of AG-80308 ophthalmic solution administered twice daily for 3 months in 84 patients with dry eye disease was conducted. […] 2-Hydroxypropyl-beta-cyclodextrin (HPβCD) was used in formulations A and B. The efficacy measures included both signs (ocular surface staining, tear film breakup time, Schirmer's test, meibomian gland assessments) and symptoms (7-item visual analog scale (VAS) assessments: burning/stinging, itching, foreign body sensation, eye discomfort, eye dryness, photophobia, pain and ocular surface disease index).
(§2) In this study, a single eye drop (approximately 30 μL) of AG-80308 was administered BID (approximately 12 hours apart) to the study eye every day until the Day 84 visit.
Corneal fluorescein staining was assessed in each eye at Visit 1 (Day −30 to Day −2), Visit 2 (Day 1), Visit 4 (Day 43), and Visit 5 (Day 84) using the NEI Scale. The NEI Scale uses a standardized grading system of 0 to 3 using whole number units for each of the […] areas on each cornea. Grade 0 was specified when no staining is present.

[4] = system: patients with dry eye disease; test: 7-item VAS symptom assessment, Phase 1b study; format: in vivo, human; details: overall study summary
Description: as §1, §2
The VAS symptom assessment was performed at Visit 1 (Day −30 to Day −2), Visit 2 (Day 1), Visit 3 (Day 15), Visit 4 (Day 43), and Visit 5 (Day 84). Subjects were asked to rate each ocular symptom, unrelated to study drug instillation, by placing a vertical mark on the horizontal line to indicate the level of discomfort. Zero millimeters (mm) corresponds to “no discomfort” and 100 mm corresponds to “maximal discomfort. The symptoms evaluated were burning/stinging, itching, foreign body sensation, eye discomfort, eye dryness, photophobia, and pain. […]

[5] = Stabilisation/solubility of AG-80308 with HPβCD; format: physicochemical; details: storage or stress conditions
[6] = system: patients with dry eye disease; test: Ocular surface disease index, Phase 1b study; format: in vivo, human; details: overall study summary
Description: as §1, §2

## CC(C)C[C@H](NC(=O)Nc1ccc(Br)cc1)C(=O)NCC(=O)O [AG-80308, {[(2S)-2-{[(4-bromophenyl)carbamoyl]amino}-4-methylpentanoyl]amino}acetic acid]
[1]
  Safety: proven safe
[2]
  Efficacy in preclinical studies: rapid efficacy similar to steroids without any impairment of wound healing
  Safety and tolerability in preclinical studies: wide margin of safety and tolerability
[3]; Day 43, LS Mean±SE
  Corneal staining, unit improvement from baseline: −2.1±0.57
[3]; Day 84, LS Mean±SE
  Corneal staining, unit improvement from baseline: −2.7±0.57
[3]; overall study summary
  Corneal and conjunctival staining: clinically meaningful unit reductions
[4]
  7-item visual analog scale for dry eye symptoms: clinically meaningful unit reductions
[5]
  Effect of HPβCD on stability and solubility of AG-80308: increasing solubility of AG-80308 and its degradant, preventing precipitation
[6]
  Ocular surface disease index scores: clinically meaningful unit reductions
